The values that follow come from patent US4374841A, “Pyridoxine derivatives, and use in therapeutics” (S. A. Labaz N.V., priority 1980, dated 1983).

Where two headings read alike, the source gives them in different places.

One series is described as follows: Acute toxicity in mice. The note with it: mouse, in vivo. From the text:
(§1) Acute toxicity tests were also undertaken in rats and mice with compounds of the invention.

The nature of the next series: Acute toxicity in rats. It is filed as in vivo. To be noted: rat, in vivo.
Source text: as §1

In series [1] the test system is anaesthetized dog. The experiment in a line: Reserpine-like properties (cardiac frequency and contractility of the myocardium). The note with it: for change in vivo at 1 mg/kg: Canis lupus familiaris, intravenous, anaesthetized dog. The class given is in vivo. An excerpt: C. Reserpine-like properties
the increase in cardiac frequency
the increase of (dP/dt) at its maximum, i.e. the increase of the maximum of the derivative of the left ventricular pressure in relation to time.
This derivative thus represented an index of contractility.

The test system of series [2] is anaesthetized dog. The experiment in a line: Hypotension in the anaesthetized dog. It is filed as in vivo. The note with it: intravenous. As for the experimental part: (a) Hypotension in the anaesthetized dog
The hypotensive effect was determined for at least one hour after the intravenous injection of a dose of the compound under study in the dog previously anaesthetized with pentobarbital (30 mg/kg) and atropinized (1 mg/kg).
Arterial pression was registered on a femoral artery.
The results were expressed as follows: […]
++ for a lasting reduction of about 30% in arterial pressure
+ for a short-lived reduction of about 20% in arterial pressure.

In the next series the test system is mice. The experiment in a line: Central depressant properties (passage of mice through a light ray). It is filed as in vivo. The note with it: Mus musculus, po, 0.5 h, intragastric, 30 minutes after administration, recorded over 15 minutes, dose with depressant action in 50% of the animals, read-out: AD50 (the source's name). The protocol: D. Central depressant properties
Thirty minutes after the intragastric administration of a dose of the compound to be studied, batches of mice were placed in a container through which a ray of light was projected. By means of a photoelectric cell, a record was made of the number of animals passing through the light ray over a period of 15 minutes. The same test was performed with control animals.
The AD50 was then calculated i.e. the dose of the compound under study which provoked a depressant action in 50% of the animals.

Another series has as its system α-receptors. The experiment in a line: Antiadrenergic properties: anti-α effect (reduction of epinephrine-increased blood-pressure). It is filed as in vivo, dog. The note with it: intravenous; for Anti-α effect: anaesthetized atropinized dog, epinephrine. As for the experimental part: (§2) The purpose of this test was to determine the capacity of the compounds under study to reduce epinephrine-increased blood-pressure (anti-α effect) and epinephrine-accelerated heart-rate (anti-β effect) in the dog previously anaesthetized with pentobarbital (30 mg/kg) and atropinized (1 mg/kg).
After that, the dose of epinephrine so determined was administered followed by a dose, by intravenous route, of the compound to be studied. The percentage of reduction of hypertension produced by the compound under study in comparison with the hypertension previously obtained (about 100 mm.Hg) was then registered.
(§3) In both cases, the results were expressed as follows: […]
(§4) + for a <50%-reduction of the increase in pressure or cardiac frequency
(§5) ++ for a ≥50-reduction of the increase in pressure or cardiac frequency
(§6) +++ for the almost complete supression of the increase in pressure or cardiac frequency.

The next series has as its system β-receptors. The experiment in a line: Antiadrenergic properties: anti-β effect (reduction of epinephrine-accelerated heart-rate). The class given is in vivo. To be noted: intravenous, anaesthetized atropinized dog. As for the experimental part: as §2
The percentage of reduction of the epinephrine-induced acceleration of heart-rate obtained by means of the compounds under study in comparison with the tachycardia previously measured (about 70 beats) was then registered.
as §3, §4, §5, §6

A further series deals with Okamoto rat. The experiment in a line: Hypotension in the Okamoto rat. The class given is in vivo. As for the experimental part: (b) Hypotension in the Okamoto rat
In this trial, the rats used belonged to a race specifically bred to produce animals having high blood-pressure. The arterial pressure of these rats was determined (about 180 mm.Hg) at the beginning of the test and a dose of the compound to be studied was then administered.
The decrease in arterial pressure was registered every hour for 6 hours after the administration of the compound in question.

The subject of a further series is rats. The experiment in a line: Acute toxicity in rats. It is filed as in vivo. To be noted: intragastric route, fumarate form.
Source text: as §1

[3] abbreviates: ip, intraperitoneal route, sesquioxalate form.
[4] abbreviates: po, intragastric route, sesquioxalate form.

As for `COc1ccccc1OCCNCC(O)COc1c(C)ncc(CO)c1CO` (stereo not shown) [drawing 42], the LD50 (usually the dose expected to kill half of the subjects tested) was > 5000 mg/kg in the series “Acute toxicity in mice” (po, intragastric route (salt form not stated)) and 245 mg/kg in the series “Acute toxicity in rats” (iv, intravenous route (salt form not stated)).

In the case of `Cc1ccccc1OCCNCC(O)COc1c(C)ncc(CO)c1CO` (stereo not shown) [Compound A, 4,5-dihydroxymethyl-3-[2-hydroxy-3-(2-methyl-phenoxyethylamino)-propoxy]-2-methyl-pyridine], the change in vivo at 1 mg/kg in the series on anaesthetized dog [1] ((dP/dt) maximum, read-out: increase in the contractility of the myocardium) is 10 to 30%; with anaesthetized dog [1] (read-out: increase in cardiac frequency), 10 to 30%. Besides, the “effects on cardiac frequency and contractility after reserpine” value in the series with anaesthetized dog [1] (dog having previously received reserpine) is listed as “suppressed”. Moreover, the “Decrease in arterial pressure” value in the series on anaesthetized dog [2] (2 mg/kg) is listed as “++ (for a lasting reduction of about 30% in arterial pressure)”. The ED50 in the series with mice was determined as 50 mg/kg. Moreover, in the series with α-receptors (10 mg/kg), the Anti-α effect result is on record as “+++”. For the same molecule, the “α-antiadrenergic properties at a dose as low as” value with α-receptors (lowest active dose, dog, sesquioxalate) is reported as 2 mg/kg. Moreover, the Anti-β effect entry in the series on β-receptors (10 mg/kg) was “+ (for a <50%-reduction of the increase in pressure or cardiac frequency)”. In the series with Okamoto rat (25 mg/kg, oral route, acute treatment, initial about 180 mm.Hg), the “maximum decrease (arterial pressure)” value was determined as 21 mm.Hg. For the same molecule, the minimal effective dose came to 50 mg/kg with Okamoto rat (chronic treatment, involving one single administration, read-out: found to be active at a dose as low as) and 25 mg/kg in the series on Okamoto rat (oral route, acute treatment, read-out: provoked hypotension at a dose as low as). Moreover, the “activity in acute treatment (ranking)” value in the series with Okamoto rat (oral route, acute treatment) is given as “the most active in acute treatment”.

For “4,5-Dihydroxymethyl-3-[3-(2-ethyl-phenoxyethylamino)-2-hydroxy-propoxy]-2-methyl-pyridine [F]”, in the series on anaesthetized dog [2] (10 mg/kg), the “Decrease in arterial pressure” value is on record as “+ (for a short-lived reduction of about 20% in arterial pressure)”. Also, the Anti-α effect result in the series with α-receptors (10 mg/kg) was “+++”. Moreover, the Anti-β effect entry in the series on β-receptors (10 mg/kg) is on record as “++ (for a ≥50-reduction of the increase in pressure or cardiac frequency)”.

For “4,5-Dihydroxymethyl-3-[2-hydroxy-3-(3-methyl-phenoxyethylamino)-propoxy]-2- methyl-pyridine”, in the series with anaesthetized dog [2] (10 mg/kg), the “Decrease in arterial pressure” value was “+ (for a short-lived reduction of about 20% in arterial pressure)”. Further, the Anti-α effect result with α-receptors (7.5 mg/kg) was “+++”. Further, in the series on β-receptors (7.5 mg/kg), the Anti-β effect result is on record as “+ (for a <50%-reduction of the increase in pressure or cardiac frequency)”.

Regarding `Cc1ccccc1OCCNCC(O)COc1c(C)ncc(CO)c1CO` (stereo not shown) [drawing 41, 4,5-Dihydroxymethyl-3-[2-hydroxy-3-(2-methyl-phenoxyethylamino)-propoxy]-2-methyl-pyridine], the LD50 in “Acute toxicity in mice” (intravenous route, sesquioxalate form) is 118 mg/kg; in the series “Acute toxicity in mice” (setting [3]) it was 290 mg/kg; in “Acute toxicity in mice” (setting [4]), 700 mg/kg; in “Acute toxicity in rats” (setting [3]), 320 mg/kg; in “Acute toxicity in rats” (iv, fumarate form), 200 mg/kg; in the series “Acute toxicity in rats” (iv, sesquioxalate form), 170 mg/kg. This molecule showed an LD50 in “Acute toxicity in rats” (setting [4]) of 2200 mg/kg. Besides, the LD0 with rats is recorded as > 2500 mg/kg.
